Measurements from US20020137929A1, “1 - (3-heterocyclylphenyl) isothiourea, -isourea, -guanidine and -amidine herbicidal agents” (Intellectual Property Department, BASF Aktiengesellschaft, priority 1998, published 2002).

What was measured:
CYPSE (Flatsedge) [1] = assay: Postemergence weed control under flooded paddy conditions; format: in vivo, Cyperus serotinus; conditions: postemergence weeds, 3-4 weeks after treatment
How it was run: (§1)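 Containers holding 3–5 cm weeds and rice at 1.5–2.5 leaves are flooded to 1.5–3 cm above soil. Compound in 50/50 v/v aqueous/acetone is then added directly to the water, about 0.0313–0.500 kg/ha. Plants are kept in the greenhouse and rated 0–9 visually at 3–4 weeks.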

GALAP (Galium) = assay: Postemergence herbicidal evaluation; format: in vivo, Galium aparine; conditions: postemergence
How it was run: (§2)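 Two-week-old seedlings sprayed with compound in 50/50 acetone/water plus 0.5% TWEEN 20, at about 0.0156 to 0.500 kg/ha, nozzle at 40 psi. Kept in greenhouse; rated visually 4-5 weeks after treatment on a 0-9 scale versus control, repeat tests averaged.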

ZEAMX (Corn, Field) [2] = assay: Postemergence herbicidal evaluation; format: in vivo, Zea mays; conditions: postemergence
How it was run: as §2

[3] = system: ECHORC (Watergrass (Calif.)); assay: Preemergence weed control under flooded paddy conditions; format: in vivo, Echinochloa oryzoides; conditions: rated 3-4 weeks after treatment
How it was run: (§3)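 Silt loam, seeds in top 0.5 cm; flood held 1.5-3 cm; test cpd as acetone/water 50/50 into flood water, ~0.0313-0.500 kg/ha a.i.; greenhouse 3-4 wk; visual 0-9 score vs control.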

ORYSAT (Rice, Tebonnet) = assay: Preemergence herbicidal evaluation; format: in vivo, Oryza sativa, (L.) Tebonnet; conditions: rated 4-5 weeks after treatment
How it was run: (§4)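 In this greenhouse assay, monocot and dicot seeds are planted in soil and treated prior to emergence with an aqueous acetone spray (about 0.0156-0.500 kg/ha). Plants are assessed visually against control on a 0-9 scale after 4-5 weeks.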

[4] = system: TRZAWR (Wheat, Winter, cv Riband); assay: Preemergence herbicidal evaluation; format: in vivo, Triticum aestivum; conditions: rated 4-5 weeks after treatment
How it was run: as §4

[5] = system: ECHORC (Watergrass (Calif.)); assay: Postemergence weed control under flooded paddy conditions; format: in vivo, Echinochloa oryzoides; conditions: postemergence weeds, 3-4 weeks after treatment
How it was run: as §1

AMBEL (Ragweed, Common) = assay: Preemergence herbicidal evaluation; format: in vivo, Ambrosia artemisifolia; conditions: rated 4-5 weeks after treatment
How it was run: as §4

ZEAMX (Corn, Field) [6] = assay: Preemergence herbicidal evaluation; format: in vivo, Zea mays; conditions: rated 4-5 weeks after treatment
How it was run: as §4

CYPIR (Rice Flatsedge) = assay: Preemergence weed control under flooded paddy conditions; format: in vivo, Cyperus iria; conditions: rated 3-4 weeks after treatment
How it was run: as §3

CYPSE (Flatsedge) [7] = assay: as above; format: in vivo, Cyperus serotinus; conditions: rated 3-4 weeks after treatment
How it was run: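 Seeds or propagules sown in top 0.5 cm of silt loam soil, flooded 1.5 to 3 cm above surface throughout. Compound in 50/50 v/v aqueous/acetone pipetted into flood water at about 0.0313 to 0.500 kg/ha. Visual 0-9 rating versus control after three to four weeks in greenhouse.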

[8] = system: IPOHE (Morningglory, Ivyleaf); assay: Preemergence herbicidal evaluation; format: in vivo, Ipomoea hederacea; conditions: rated 4-5 weeks after treatment
How it was run: as §4

CASOB (Sicklepod) = assay: Postemergence herbicidal evaluation; format: in vivo, Cassia obtusifolia; conditions: postemergence
How it was run: as §2

[9] = system: CHEAL (Lambsquarters, Common); assay: Preemergence herbicidal evaluation; format: in vivo, Chenopodium album; conditions: rated 4-5 weeks after treatment
How it was run: as §4

With `CCOC(=O)CN1C(=O)C(C)SC1=Nc1cc(-n2c(=O)cc(C(F)(F)F)n(C)c2=O)c(F)cc1Cl` (centres unmarked) [Compound 12] the “Herbicidal rating CYPSE” value (CYPSE (Flatsedge) [1]; rate 0.0313 kg/ha) was 1.0, the “Herbicidal rating CYPSE” value (CYPSE (Flatsedge) [1]; rate 0.0625 kg/ha) was 3.0 and the “Herbicidal rating CYPSE” value (CYPSE (Flatsedge) [1]; rate 0.1250 kg/ha) was 1.0. The “Herbicidal rating CYPSE” value (CYPSE (Flatsedge) [1]; rate 0.2500 kg/ha) was 6.0, the GALAP herbicidal rating (GALAP (Galium); rate 0.0156 kg/ha) was 3.0 and the GALAP herbicidal rating (GALAP (Galium); rate 0.0313 kg/ha) was 5.0. For the same molecule, the GALAP herbicidal rating (GALAP (Galium); rate 0.0625 kg/ha) was 7.0, the GALAP herbicidal rating (GALAP (Galium); rate 0.1250 kg/ha) was 8.0 and the ZEAMX herbicidal rating (ZEAMX (Corn, Field) [2]; rate 0.0156 kg/ha) was 6.5. It also gave a ZEAMX herbicidal rating (ZEAMX (Corn, Field) [2]; rate 0.0313 kg/ha) of 7.0, a ZEAMX herbicidal rating (ZEAMX (Corn, Field) [2]; rate 0.0625 kg/ha) of 7.5 and a ZEAMX herbicidal rating (ZEAMX (Corn, Field) [2]; rate 0.1250 kg/ha) of 8.0. The “Herbicidal rating ECHORC” value ([3]; 0.0313 kg/ha) was 5.0, the “Herbicidal rating ECHORC” value ([3]; 0.0625 kg/ha) was 9.0 and the “Herbicidal rating ECHORC” value ([3]; 0.1250 kg/ha) was 8.5. For the same molecule, the “Herbicidal rating ECHORC” value ([3]; 0.2500 kg/ha) was 9.0, the “ORYSAT preemergence herbicidal rating” value (ORYSAT (Rice, Tebonnet); rate 0.0156 kg/ha) was 0.0 and the “ORYSAT preemergence herbicidal rating” value (ORYSAT (Rice, Tebonnet); rate 0.0313 kg/ha) was 1.0. The “ORYSAT preemergence herbicidal rating” value (ORYSAT (Rice, Tebonnet); rate 0.0625 kg/ha) was 4.0, the “ORYSAT preemergence herbicidal rating” value (ORYSAT (Rice, Tebonnet); rate 0.1250 kg/ha) was 7.0 and the “ORYSAT preemergence herbicidal rating” value (ORYSAT (Rice, Tebonnet); rate 0.2500 kg/ha) was 7.0. The “TRZAWR preemergence herbicidal rating” value ([4]; rate 0.0156 kg/ha) was 0.0, the “TRZAWR preemergence herbicidal rating” value ([4]; rate 0.0313 kg/ha) was 1.0 and the “TRZAWR preemergence herbicidal rating” value ([4]; rate 0.0625 kg/ha) was 5.0. The “TRZAWR preemergence herbicidal rating” value ([4]; rate 0.1250 kg/ha) was 8.0, the “TRZAWR preemergence herbicidal rating” value ([4]; rate 0.2500 kg/ha) was 8.0 and the “Herbicidal rating ECHORC” value ([5]; rate 0.0313 kg/ha) was 5.0. For the same molecule, the “Herbicidal rating ECHORC” value ([5]; rate 0.0625 kg/ha) was 9.0, the “Herbicidal rating ECHORC” value ([5]; rate 0.1250 kg/ha) was 8.5 and the “Herbicidal rating ECHORC” value ([5]; rate 0.2500 kg/ha) was 9.0. For the same molecule, the “AMBEL preemergence herbicidal rating” value (AMBEL (Ragweed, Common); rate 0.0156 kg/ha) was 0.0, the “AMBEL preemergence herbicidal rating” value (AMBEL (Ragweed, Common); rate 0.0313 kg/ha) was 4.5 and the “AMBEL preemergence herbicidal rating” value (AMBEL (Ragweed, Common); rate 0.0625 kg/ha) was 9.0. For the same molecule, the “AMBEL preemergence herbicidal rating” value (AMBEL (Ragweed, Common); rate 0.1250 kg/ha) was 9.0, the “AMBEL preemergence herbicidal rating” value (AMBEL (Ragweed, Common); rate 0.2500 kg/ha) was 9.0 and the “ZEAMX preemergence herbicidal rating” value (ZEAMX (Corn, Field) [6]; rate 0.0156 kg/ha) was 4.0. For the same molecule, the “ZEAMX preemergence herbicidal rating” value (ZEAMX (Corn, Field) [6]; rate 0.0313 kg/ha) was 5.0, the “ZEAMX preemergence herbicidal rating” value (ZEAMX (Corn, Field) [6]; rate 0.0625 kg/ha) was 5.5 and the “ZEAMX preemergence herbicidal rating” value (ZEAMX (Corn, Field) [6]; rate 0.1250 kg/ha) was 6.5. For the same molecule, the “ZEAMX preemergence herbicidal rating” value (ZEAMX (Corn, Field) [6]; rate 0.2500 kg/ha) was 8.5, the “Herbicidal rating CYPIR” value (CYPIR (Rice Flatsedge); 0.0313 kg/ha) was 0.0 and the “Herbicidal rating CYPIR” value (CYPIR (Rice Flatsedge); 0.0625 kg/ha) was 0.0. The “Herbicidal rating CYPIR” value (CYPIR (Rice Flatsedge); 0.1250 kg/ha) was 1.0, the “Herbicidal rating CYPIR” value (CYPIR (Rice Flatsedge); 0.2500 kg/ha) was 0.0 and the “Herbicidal rating CYPSE” value (CYPSE (Flatsedge) [7]; 0.0313 kg/ha) was 1.0. The “Herbicidal rating CYPSE” value (CYPSE (Flatsedge) [7]; 0.0625 kg/ha) was 3.0, the “Herbicidal rating CYPSE” value (CYPSE (Flatsedge) [7]; 0.1250 kg/ha) was 1.0 and the “Herbicidal rating CYPSE” value (CYPSE (Flatsedge) [7]; 0.2500 kg/ha) was 6.0. The “IPOHE preemergence herbicidal rating” value ([8]; rate 0.0156 kg/ha) was 4.5, the “IPOHE preemergence herbicidal rating” value ([8]; rate 0.0313 kg/ha) was 9.0 and the “IPOHE preemergence herbicidal rating” value ([8]; rate 0.0625 kg/ha) was 9.0. For the same molecule, the “IPOHE preemergence herbicidal rating” value ([8]; rate 0.1250 kg/ha) was 9.0, the “IPOHE preemergence herbicidal rating” value ([8]; rate 0.2500 kg/ha) was 9.0 and the CASOB herbicidal rating (CASOB (Sicklepod); rate 0.0156 kg/ha) was 0.0. The CASOB herbicidal rating (CASOB (Sicklepod); rate 0.0313 kg/ha) was 3.0, the CASOB herbicidal rating (CASOB (Sicklepod); rate 0.0625 kg/ha) was 7.0 and the CASOB herbicidal rating (CASOB (Sicklepod); rate 0.1250 kg/ha) was 9.0. For the same molecule, the “CHEAL preemergence herbicidal rating” value ([9]; rate 0.0156 kg/ha) was 9.0, the “CHEAL preemergence herbicidal rating” value ([9]; rate 0.0313 kg/ha) was 9.0 and the “CHEAL preemergence herbicidal rating” value ([9]; rate 0.0625 kg/ha) was 9.0. The “CHEAL preemergence herbicidal rating” value ([9]; rate 0.1250 kg/ha) was 9.0 and the “CHEAL preemergence herbicidal rating” value ([9]; rate 0.2500 kg/ha) was 9.0.
